From US20240116922A1, “IMIDAZO[1,2-A]PYRIDINE DERIVATIVES AS IRAK4 INHIBITORS AND THEIR USE IN THE TREATMENT OF DISEASE” (BIOGEN MA INC., priority 2020, published 2024) come the findings set out here.

A short description of series [1]: Kinetic solubility assay (CLND), pH 6.8. The format is physicochemical. As to conditions: aqueous buffer, kinetic from dmso stock; potassium phosphate buffer pH 6.8, 2% DMSO, 24 hours at ambient temperature.
The nature of series [2]: Kpuu assay (in vivo brain-to-plasma unbound partition). As to conditions: brain (unbound) versus plasma (unbound); intravenous infusion 4 to 24 h; unbound brain/plasma ratio; read-out: Brain Kpu, u.
The target of the next series is MDR1 (Homo sapiens (Human), UniProt P08183). As to the kind of experiment: in vitro. The conditions noted are these: MDCK-MDR1.
MDR1, sequence (P08183 whole entry): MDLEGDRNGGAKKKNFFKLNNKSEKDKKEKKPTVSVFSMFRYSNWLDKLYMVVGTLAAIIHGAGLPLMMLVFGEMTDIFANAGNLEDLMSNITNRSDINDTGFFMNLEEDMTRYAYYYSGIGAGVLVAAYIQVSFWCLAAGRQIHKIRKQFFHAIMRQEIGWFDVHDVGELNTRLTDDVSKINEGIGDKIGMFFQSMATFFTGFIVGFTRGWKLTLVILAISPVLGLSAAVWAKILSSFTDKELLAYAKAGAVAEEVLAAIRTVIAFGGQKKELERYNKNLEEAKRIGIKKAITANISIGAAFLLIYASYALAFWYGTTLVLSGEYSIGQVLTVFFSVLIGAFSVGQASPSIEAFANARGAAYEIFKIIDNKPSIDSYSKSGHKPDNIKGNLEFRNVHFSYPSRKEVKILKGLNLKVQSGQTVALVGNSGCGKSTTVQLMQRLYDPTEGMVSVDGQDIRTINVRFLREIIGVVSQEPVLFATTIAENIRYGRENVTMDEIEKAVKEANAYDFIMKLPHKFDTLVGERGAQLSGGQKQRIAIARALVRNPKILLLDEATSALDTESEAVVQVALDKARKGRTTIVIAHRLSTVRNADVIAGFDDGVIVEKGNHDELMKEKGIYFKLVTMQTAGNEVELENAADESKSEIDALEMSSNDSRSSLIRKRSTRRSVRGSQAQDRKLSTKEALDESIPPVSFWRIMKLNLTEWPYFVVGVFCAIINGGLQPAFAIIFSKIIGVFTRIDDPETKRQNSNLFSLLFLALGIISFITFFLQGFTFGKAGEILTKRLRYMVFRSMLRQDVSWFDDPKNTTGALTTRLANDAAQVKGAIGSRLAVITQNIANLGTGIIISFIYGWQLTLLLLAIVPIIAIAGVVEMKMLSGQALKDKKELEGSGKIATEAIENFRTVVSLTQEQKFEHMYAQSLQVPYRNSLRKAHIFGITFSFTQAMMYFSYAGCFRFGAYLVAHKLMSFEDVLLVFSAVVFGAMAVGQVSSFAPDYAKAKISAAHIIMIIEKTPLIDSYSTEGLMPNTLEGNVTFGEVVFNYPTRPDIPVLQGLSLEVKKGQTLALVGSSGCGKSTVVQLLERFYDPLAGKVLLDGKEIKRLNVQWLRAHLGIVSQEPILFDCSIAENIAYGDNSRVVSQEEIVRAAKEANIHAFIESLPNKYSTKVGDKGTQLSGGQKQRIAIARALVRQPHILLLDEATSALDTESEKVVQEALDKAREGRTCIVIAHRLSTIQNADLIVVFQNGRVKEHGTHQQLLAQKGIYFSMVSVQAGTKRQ
For another series, the target named is IRAK4 (Homo sapiens (Human), UniProt Q9NWZ3). As to the kind of experiment: IRAK4 MSD biochemical assay (2-hour 1 mM ATP). As to conditions: 0.1 nM IRAK4, 1 mM ATP, 2 hour at room temperature.
IRAK4, sequence (Q9NWZ3 whole entry): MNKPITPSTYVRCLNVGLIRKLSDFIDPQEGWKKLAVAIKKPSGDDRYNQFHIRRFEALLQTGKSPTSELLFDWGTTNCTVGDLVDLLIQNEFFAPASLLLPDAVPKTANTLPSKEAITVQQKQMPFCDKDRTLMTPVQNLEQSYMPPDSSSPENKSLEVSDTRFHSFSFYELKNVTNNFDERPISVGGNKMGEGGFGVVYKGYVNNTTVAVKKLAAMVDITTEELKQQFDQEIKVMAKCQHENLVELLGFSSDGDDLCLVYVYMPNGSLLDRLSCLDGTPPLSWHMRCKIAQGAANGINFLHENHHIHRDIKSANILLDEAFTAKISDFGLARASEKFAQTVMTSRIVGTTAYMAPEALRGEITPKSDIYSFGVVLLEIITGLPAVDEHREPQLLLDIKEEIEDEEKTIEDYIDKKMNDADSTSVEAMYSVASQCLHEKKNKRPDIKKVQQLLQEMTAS

In brackets after ≈: the same amount, converted by molar mass. Where a name gives a salt, the structure may show the parent alone.

In general, solubility (kinetic) refers to solubility judged after dilution from a stock solution rather than from solid. The term efflux ratio denotes the permeability from basolateral to apical divided by that in the opposite direction, in the common usage. In general, IC50 refers to the concentration at which inhibition is half-maximal. Read a low IC50 as greater potency in that assay. `CC(C)Oc1nc2nc(C[C@@H]3CCOC3)cn2cc1C(=O)Nc1cccn(C2CC2)c1=O` (single isomer, unassigned) [Example 109] yielded a solubility (kinetic) at 24 h in series [1] of 50.2 µg/mL (≈ 115 µM). Moreover, the Kpuu (unbound brain-to-plasma partition coefficient) in series [2] stood at 0.25. Also, the efflux ratio at 120 min, 1 μM at MDR1 was 7.1. Further, the IC50 at IRAK4 amounted to 0.5 nM.

For the molecule `Cc1cnc2c(NC(=O)c3cn4cc(C56COC(C)(C5)C6)nc4nc3OC(C)C)cnn2c1` [Comparator 2B, 7-isopropoxy-2-(1-methyl-2-oxabicyclo[2.1.1]hexan-4-yl)-N-(6-methylpyrazolo[1,5-a]pyrimidin-3-yl)imidazo[1,2-a]pyrimidine-6-carboxamide, reference compound], in series [2], the Kpuu (unbound brain-to-plasma partition coefficient) turned out to be 0.3.

In the case of `CC[C@@H](C)Oc1nc2nc(C34COC(C)(C3)C4)cn2cc1C(=O)Nc1cccn(C2CC2)c1=O` (single isomer, unassigned) [Example 63], the kinetic solubility at 24 h in series [1] was determined as 67.1 µg/mL (≈ 145 µM). Besides, the Kpuu (unbound brain-to-plasma partition coefficient) in series [2] amounted to 0.48. Further, on MDR1, the efflux ratio at 120 min, 1 μM is 5.5. This molecule also showed an IC50 on IRAK4 of 0.8 nM.

`CC(C)Oc1cc2nc([C@@]34CC[C@@](C)(C3)OC4)cn2cc1C(=O)Nc1cccn(C2CC2)c1=O` (single isomer, unassigned) [Example 4] returned a kinetic solubility at 24 h in series [1] of 57.4 µg/mL (≈ 124 µM). Besides, the Kpuu (unbound brain-to-plasma partition coefficient) in series [2] was 0.26. Further, the efflux ratio at 120 min, 1 μM on MDR1 was 7.1. This molecule had a half-maximal inhibitory concentration (IC50) against IRAK4 of 0.2 nM.

Consider `CC(C)Oc1cc2nc(C34COC(C)(C3)C4)cn2cc1C(=O)Nc1cccc(C(F)F)n1` [Comparator 1A, N-(6-(difluoromethyl)pyridin-2-yl)-7-isopropoxy-2-(1-methyl-2-oxabicyclo[2.1.1]hexan-4-yl)imidazo[1,2-a]pyridine-6-carboxamide, reference compound], for which the kinetic solubility at 24 h in series [1] turned out to be 2.1 µg/mL (≈ 4.75 µM). Also, the Kpuu (unbound brain-to-plasma partition coefficient) in series [2] amounted to 0.4. Further, the efflux ratio at 120 min, 1 μM at MDR1 was 0.9.

`O=C(Nc1cccn(C2CC2)c1=O)c1cn2cc(C34COC(CF)(C3)C4)nc2nc1OC1CCC1` [Example 33, 7-cyclobutoxy-N-(1-cyclopropyl-2-oxo-1,2-dihydropyridin-3-yl)-2-(1-(fluoromethyl)-2-oxabicyclo[2.1.1]hexan-4-yl)imidazo[1,2-a]pyrimidine-6-carboxamide]: the kinetic solubility at 24 h in series [1] stood at 10.1 µg/mL (≈ 21.1 µM). Also, the Kpuu (unbound brain-to-plasma partition coefficient) in series [2] came to 0.45.

On to `CC(C)Oc1nc2nc(C34COC(CF)(C3)C4)cn2cc1C(=O)Nc1cccn(C2CC2)c1=O` [Example 10, N-(1-cyclopropyl-2-oxo-1,2-dihydropyridin-3-yl)-2-(1-(fluoromethyl)-2-oxabicyclo[2.1.1]hexan-4-yl)-7-isopropoxyimidazo[1,2-a]pyrimidine-6-carboxamide], for which the solubility (kinetic) at 24 h in series [1] is 79.3 µg/mL (≈ 170 µM). Also, in series [2], the Kpuu (unbound brain-to-plasma partition coefficient) was found to be 0.22.

In turn, `CC(C)Oc1nc2nc(C34CCC(C)(CC3)OC4)cn2cc1C(=O)Nc1cccn(C)c1=O` [Comparator 6D, 7-isopropoxy-N-(-methyl-2-oxo-1,2-dihydropyridin-3-yl)-2-(1-methyl-2-oxabicyclo[2.2.2]octan-4-yl)imidazo[1,2-a]pyrimidine-6-carboxamide, reference compound] gave a solubility (kinetic) at 24 h in series [1] of 11.2 µg/mL (≈ 24.8 µM). Further, the Kpuu (unbound brain-to-plasma partition coefficient) in series [2] worked out at 0.4. Moreover, the efflux ratio at 120 min, 1 μM on MDR1 was 3.

For `CC[C@H](C)Oc1nc2nc([C@]34CC[C@](C)(C3)OC4)cn2cc1C(=O)Nc1cccn(C2CC2)c1=O` [Example 50, 7-((S)-sec-butoxy)-N-(1-cyclopropyl-2-oxo-1,2-dihydropyridin-3-yl)-2-((1R,4S)-1-methyl-2-oxabicyclo[2.2.1]heptan-4-yl)imidazo[1,2-a]pyrimidine-6-carboxamide], the Kpuu (unbound brain-to-plasma partition coefficient) in series [2] worked out at 0.66. Moreover, the efflux ratio at 120 min, 1 μM at MDR1 was determined as 2.9. Besides, on IRAK4, the 50% inhibitory concentration (IC50) amounted to 0.5 nM.

In turn, `CC(C)Oc1cc2nc([C@@]34CC[C@@](C)(C3)OC4)cn2cc1C(=O)Nc1cccn(C)c1=O` (single isomer, unassigned) [Comparator 3D, reference compound] registered a kinetic solubility at 24 h in series [1] of 49.3 µg/mL (≈ 113 µM). Besides, in series [2], the Kpuu (unbound brain-to-plasma partition coefficient) worked out at 1.1. Moreover, the efflux ratio at 120 min, 1 μM on MDR1 was 3.1.

As for `CC(C)Oc1nc2nc([C@@H]3CCCOC3)cn2cc1C(=O)Nc1cccn(C2CC2)c1=O` (single isomer, unassigned) [Example 108], the Kpuu (unbound brain-to-plasma partition coefficient) in series [2] stood at 0.52. In addition, on MDR1, the efflux ratio at 120 min, 1 μM was 4. Moreover, at IRAK4, the IC50 is 0.1 nM.

Turning to `CC(C)Oc1nc2nc(C34COC(C)(C3)C4)cn2cc1C(=O)Nc1cccn([C@H]2C[C@H]2F)c1=O` [Example 159, N-(1-((1S,2R)-2-fluorocyclopropyl)-2-oxo-1,2-dihydropyridin-3-yl)-7-isopropoxy-2-(1-methyl-2-oxabicyclo[2.1.1]hexan-4-yl)imidazo[1,2-a]pyrimidine-6-carboxamide], the Kpuu (unbound brain-to-plasma partition coefficient) in series [2] was 0.28.

Molecule `CC(C)Oc1nc2nc(C34COC(C)(C3)C4)cn2cc1C(=O)Nc1cccc(C(F)F)n1` [Comparator 2A, N-(6-(difluoromethyl)pyridin-2-yl)-7-isopropoxy-2-(1-methyl-2-oxabicyclo[2.1.1]hexan-4-yl)imidazo[1,2-a]pyrimidine-6-carboxamide, reference compound] came in with a kinetic solubility at 24 h in series [1] of 2.4 µg/mL (≈ 5.41 µM). Also, the Kpuu (unbound brain-to-plasma partition coefficient) in series [2] was determined as 0.4. In addition, the efflux ratio at 120 min, 1 μM on MDR1 is 1.1.

In series [1], `COC[C@]12CC[C@](c3cn4cc(C(=O)Nc5cccn([C@H]6C[C@H]6F)c5=O)c(OC(C)C)nc4n3)(CO1)C2` (single isomer, unassigned) [Example 130] displayed a kinetic solubility at 24 h of 63.6 µg/mL (≈ 124 µM). For the same molecule, the Kpuu (unbound brain-to-plasma partition coefficient) in series [2] was 0.08.

On to `CC(C)Oc1nc2nc([C@@]34CC[C@@](C)(C3)OC4)cn2cc1C(=O)Nc1cccc(C(F)F)n1` (single isomer, unassigned) [Comparator 4A, reference compound], for which, in series [1], the kinetic solubility at 24 h turned out to be 2 µg/mL (≈ 4.37 µM). The Kpuu (unbound brain-to-plasma partition coefficient) in series [2] was found to be 0.4. Also, the efflux ratio at 120 min, 1 μM on MDR1 was found to be 0.7.

In turn, `COC[C@@]12CC[C@@](c3cn4cc(C(=O)Nc5cccn([C@H]6C[C@H]6F)c5=O)c(OC(C)C)nc4n3)(CO1)C2` (single isomer, unassigned) [Example 132] yielded a kinetic solubility at 24 h in series [1] of 70.5 µg/mL (≈ 138 µM). For the same molecule, in series [2], the Kpuu (unbound brain-to-plasma partition coefficient) came out at 0.14.

For the molecule `CC(C)Oc1nc2nc(C34COC(C)(C3)C4)cn2cc1C(=O)Nc1cccn([C@H]2C[C@H]2C)c1=O` [Example 136, 7-isopropoxy-2-(1-methyl-2-oxabicyclo[2.1.1]hexan-4-yl)-N-(1-((1S,2R)-2-methylcyclopropyl)-2-oxo-1,2-dihydropyridin-3-yl)imidazo[1,2-a]pyrimidine-6-carboxamide], the Kpuu (unbound brain-to-plasma partition coefficient) in series [2] was determined as 0.4.

As to `CC(C)Oc1nc2nc(C34COC(C)(C3)C4)cn2cc1C(=O)Nc1cccn(C2CC2)c1=O` [Example 18, N-(1-cyclopropyl-2-oxo-1,2-dihydropyridin-3-yl)-7-isopropoxy-2-(1-methyl-2-oxabicyclo[2.1.1]hexan-4-yl)imidazo[1,2-a]pyrimidine-6-carboxamide], in series [2], the Kpuu (unbound brain-to-plasma partition coefficient) turned out to be 0.7.

In turn, `CC(C)Oc1nc2nc([C@@]34CC[C@@](CF)(C3)OC4)cn2cc1C(=O)Nc1cccn(C2CC2)c1=O` (single isomer, unassigned) [Example 46] gave a kinetic solubility at 24 h in series [1] of 9 µg/mL (≈ 18.7 µM). Also, the Kpuu (unbound brain-to-plasma partition coefficient) in series [2] was determined as 1.81.

`CC(C)Oc1nc2nc([C@@]34CC[C@@](C)(C3)OC4)cn2cc1C(=O)Nc1cccn(C2CC2)c1=O` (single isomer, unassigned) [Example 12]: in series [1], the kinetic solubility at 24 h amounted to 22.3 µg/mL (≈ 48.1 µM). Further, the Kpuu (unbound brain-to-plasma partition coefficient) in series [2] is 0.33.

Molecule `CC(C)Oc1cc2nc(C34COC(C)(C3)C4)cn2cc1C(=O)Nc1cccn([C@H]2C[C@@H]2F)c1=O` (single isomer, unassigned) [Example 155] registered a kinetic solubility at 24 h in series [1] of 35.8 µg/mL (≈ 76.7 µM). Moreover, the Kpuu (unbound brain-to-plasma partition coefficient) in series [2] is 0.36.

`CC(C)Oc1cc2nc(C34CCC(C)(CC3)OC4)cn2cc1C(=O)Nc1ccn(C)n1` [Comparator 5C, 7-isopropoxy-N-(1-methyl-1H-pyrazol-3-yl)-2-(1-methyl-2-oxabicyclo[2.2.2]octan-4-yl)imidazo[1,2-a]pyridine-6-carboxamide, reference compound] yielded a kinetic solubility at 24 h in series [1] of 39.6 µg/mL (≈ 93.5 µM). The Kpuu (unbound brain-to-plasma partition coefficient) in series [2] was determined as 0.4. Also, the efflux ratio at 120 min, 1 μM at MDR1 was found to be 2.2.

With `CC(C)Oc1cc2nc(C34CCC(C)(CC3)OC4)cn2cc1C(=O)Nc1cccn(C)c1=O` [Comparator 5D, 7-isopropoxy-N-(1-methyl-2-oxo-1,2-dihydropyridin-3-yl)-2-(1-methyl-2-oxabicyclo[2.2.2]octan-4-yl)imidazo[1,2-a]pyridine-6-carboxamide, reference compound], the kinetic solubility at 24 h in series [1] turned out to be 45.6 µg/mL (≈ 101 µM). Further, the Kpuu (unbound brain-to-plasma partition coefficient) in series [2] came to 0.6. In addition, on MDR1, the efflux ratio at 120 min, 1 μM amounted to 2.

Regarding `CC12CC(c3cn4cc(C(=O)Nc5cccn([C@H]6C[C@H]6F)c5=O)c(OC5CCC5)cc4n3)(CO1)C2` (single isomer, unassigned) [Example 173], the solubility (kinetic) at 24 h in series [1] was 22.6 µg/mL (≈ 47.2 µM). The efflux ratio at 120 min, 1 μM on MDR1 turned out to be 10.9. Moreover, on IRAK4, the IC50 was determined as 0.2 nM.

For `C[C@@H]1C[C@@H]1n1cccc(NC(=O)c2cn3cc(C45COC(C)(C4)C5)nc3nc2OC2CCC2)c1=O` [Example 188, 7-cyclobutoxy-2-(1-methyl-2-oxabicyclo[2.1.1]hexan-4-yl)-N-(1-((1S,2R)-2-methylcyclopropyl)-2-oxo-1,2-dihydropyridin-3-yl)imidazo[1,2-a]pyrimidine-6-carboxamide trifluoroacetate], the kinetic solubility at 24 h in series [1] amounted to 49.7 µg/mL. The efflux ratio at 120 min, 1 μM on MDR1 worked out at 4.4. Also, on IRAK4, the midpoint of inhibition, the IC50, lay at 0.8 nM.
